For 25 molecules, IC50 results are on record in ChEMBL document CHEMBL1144773, “Neolignans, a coumarinolignan, lignan derivatives, and a chromene: anti-inflammatory constituents from Zanthoxylum avicennae” (J Nat Prod, 2008).

The nature of experiment [1]: Antiinflammatory activity in human neutrophils assessed as inhibition of formyl-L-methionyl-L-leucyl-L-phenylalanine/cytochalasin B-induced superoxide anion generation. The following applies: Neutrophil. The format is functional, cell-based.
Experiment [2] can be described thus: Antiinflammatory activity in human neutrophils assessed as inhibition of formyl-L-methionyl-L-leucyl-L-phenylalanine/cytochalasin B-induced elastase release. The format is functional, cell-based. As to conditions: Neutrophil.

With `COc1cc([C@@H]2Oc3cc(/C=C/C=O)ccc3O[C@H]2CO)cc(OC)c1O`, the IC50 in experiment [1] is 26.9 µM; in experiment [2], > 50 µM.

In the case of `COc1cc([C@@H]2Oc3cc(/C=C/C=O)cc(O)c3O[C@H]2CO)cc(OC)c1OC`, the IC50 in experiment [1] and in experiment [2] was > 50 µM throughout.

As for `COc1cc(/C=C\C(=O)OC[C@H]2[C@@H](Cc3cc(OC)c(O)c(OC)c3)CO[C@@H]2c2cc(OC)c(O)c(OC)c2)ccc1O`, the IC50 in experiment [1] came to 28 µM; in experiment [2], 28.9 µM.

Consider `COc1cc([C@@H]2Oc3cc(/C=C/C=O)cc(OC)c3O[C@H]2CO)ccc1O`, for which the IC50 in experiment [1] and in experiment [2] was > 50 µM each time.

Regarding `COc1cc([C@@H]2Oc3cc(/C=C/C=O)cc(OC)c3O[C@H]2CO)cc(OC)c1O`, the results for the IC50 in experiment [1] and in experiment [2] were 48.6 µM and > 50 µM, respectively.

Turning to `COc1cc(=O)n(C)c2ccccc12`, the IC50 in experiment [1] and in experiment [2] was > 50 µM in each case.

Turning to `COc1cc([C@@H]2OC[C@@H]3[C@H]2CO[C@H]3c2cc(OC)c(O)c(OC)c2)cc(OC)c1O`, the figures for the 50% inhibitory concentration (IC50) in experiment [1] and in experiment [2] were 39.9 µM and > 50 µM, respectively.

Take `COc1cc([C@@H]2Oc3c(c(OC)cc4ccc(=O)oc34)O[C@H]2CO)cc(OC)c1OC`: the IC50 is 14.7 µM in experiment [1] and > 50 µM in experiment [2].

Turning to `COc1cc(/C=C/C(=O)OC[C@H]2[C@@H](Cc3cc(OC)c(O)c(OC)c3)CO[C@@H]2c2cc(OC)c(O)c(OC)c2)ccc1O`, the IC50 in experiment [1] was 33.6 µM; in experiment [2], > 50 µM.

For the molecule `CC1(C)C=Cc2cc(/C=C/C=O)ccc2O1`, the IC50 in experiment [1] and in experiment [2] was > 50 µM each time.

Turning to `COc1c2c(c3ccc(=O)oc3c1/C=C/C(C)(C)OC)OC(C)(C)C=C2` [AVICENNOL METHYL ETHER], the IC50 in experiment [1] was 48.4 µM; in experiment [2], > 50 µM.

As to `COc1c2c(c3ccc(=O)oc3c1/C=C/C(C)(C)O)OC(C)(C)C=C2` [AVICENNOL], the IC50 in experiment [1] was > 50 µM; in experiment [2] it was 32 µM.

For the molecule `COc1cc([C@@H]2Oc3c(c(OC)cc4ccc(=O)oc34)O[C@H]2CO)cc(OC)c1O` [CLEOMISCOSIN D], the IC50 in experiment [1] was 13.1 µM; in experiment [2], > 50 µM.

Consider `COc1c2ccccc2nc2occc12` [DICTAMNINE], for which the IC50 in experiment [1] and in experiment [2] was > 50 µM each time.

Regarding `c1ccc2c(c1)[I+]c1ccccc1-2` [DIPHENYLENEIODONIUM], in experiment [1], the IC50 came to 1.68 µM.

As for `COc1cc(=O)[nH]c2c(OC)cccc12` [EDULITINE], the results for the IC50 in experiment [1] and in experiment [2] were 38 µM and > 50 µM, respectively.

`COc1cc2ccc(=O)oc2c(OC)c1OC` [FRAXIDIN METHYL ETHER]: the IC50 was 49.5 µM in experiment [1] and > 50 µM in experiment [2].

As to `COc1c2ccoc2nc2c(OC)cccc12` [GAMMA-FAGARINE], the IC50 in experiment [1] is 31.3 µM; in experiment [2], > 50 µM.

Take `Cn1c2ccccc2c(=O)c2ccoc21` [ISODICTAMNINE]: the IC50 in experiment [1] and in experiment [2] was > 50 µM in each case.

Consider `COc1c2c(cc3ccc(=O)oc13)C=CC(C)(C)O2` [LUVANGETIN], for which the IC50 in experiment [1] and in experiment [2] was > 50 µM in each case.

Regarding `O=S(=O)(F)Cc1ccccc1` [PHENYLMETHYLSULFONYLFLUORIDE], the IC50 in experiment [2] came out at 204 µM.

Turning to `COc1c2ccoc2nc2c(O)cccc12` [ROBUSTINE], the half-maximal inhibitory concentration (IC50) in experiment [1] is 18.2 µM; in experiment [2], > 50 µM.

Take `COc1cc2ccc(=O)oc2cc1OC` [SCOPARONE]: the IC50 in experiment [1] was 42.9 µM; in experiment [2] it was > 50 µM.

On to `COc1cc2ccc(=O)oc2cc1O` [SCOPOLETIN], for which the half-maximal inhibitory concentration (IC50) in experiment [1] and in experiment [2] was > 50 µM in each case.

As for `COc1ccc2c(OC)c3ccoc3nc2c1OC` [SKIMMIANINE], the figures for the IC50 in experiment [1] and in experiment [2] were 13.2 µM and 19.2 µM, respectively.
